The values below come from US10233158B2, “Arylalkyl- and aryloxyalkyl-substituted epithelial sodium channel blocking compounds” (Parion Sciences, Inc., priority 2013, dated 2019).

In one test the target is T1, ENaC (Canis lupus familiaris, UniProt A0A8I3MKE6+A0A8I3Q679+Q95165).
T1 sequence (A0A8I3Q679 1-649): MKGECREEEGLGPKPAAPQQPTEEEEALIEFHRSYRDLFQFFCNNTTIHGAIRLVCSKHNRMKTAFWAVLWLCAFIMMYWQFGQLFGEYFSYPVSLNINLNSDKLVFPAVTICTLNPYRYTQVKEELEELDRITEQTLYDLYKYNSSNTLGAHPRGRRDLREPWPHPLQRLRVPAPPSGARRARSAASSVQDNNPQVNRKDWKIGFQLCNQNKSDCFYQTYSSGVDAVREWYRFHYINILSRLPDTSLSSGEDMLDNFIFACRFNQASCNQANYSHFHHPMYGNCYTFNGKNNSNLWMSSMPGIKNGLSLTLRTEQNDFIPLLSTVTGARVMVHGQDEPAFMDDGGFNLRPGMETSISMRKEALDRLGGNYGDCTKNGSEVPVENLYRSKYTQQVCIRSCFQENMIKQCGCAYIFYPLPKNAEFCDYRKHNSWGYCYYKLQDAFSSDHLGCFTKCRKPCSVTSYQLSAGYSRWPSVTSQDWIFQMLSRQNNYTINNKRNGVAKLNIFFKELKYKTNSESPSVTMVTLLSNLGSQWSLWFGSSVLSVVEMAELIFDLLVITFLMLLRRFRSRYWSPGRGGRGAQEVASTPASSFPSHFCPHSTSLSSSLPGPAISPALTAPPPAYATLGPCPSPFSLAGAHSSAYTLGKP
T1 sequence (Q95165 1-641): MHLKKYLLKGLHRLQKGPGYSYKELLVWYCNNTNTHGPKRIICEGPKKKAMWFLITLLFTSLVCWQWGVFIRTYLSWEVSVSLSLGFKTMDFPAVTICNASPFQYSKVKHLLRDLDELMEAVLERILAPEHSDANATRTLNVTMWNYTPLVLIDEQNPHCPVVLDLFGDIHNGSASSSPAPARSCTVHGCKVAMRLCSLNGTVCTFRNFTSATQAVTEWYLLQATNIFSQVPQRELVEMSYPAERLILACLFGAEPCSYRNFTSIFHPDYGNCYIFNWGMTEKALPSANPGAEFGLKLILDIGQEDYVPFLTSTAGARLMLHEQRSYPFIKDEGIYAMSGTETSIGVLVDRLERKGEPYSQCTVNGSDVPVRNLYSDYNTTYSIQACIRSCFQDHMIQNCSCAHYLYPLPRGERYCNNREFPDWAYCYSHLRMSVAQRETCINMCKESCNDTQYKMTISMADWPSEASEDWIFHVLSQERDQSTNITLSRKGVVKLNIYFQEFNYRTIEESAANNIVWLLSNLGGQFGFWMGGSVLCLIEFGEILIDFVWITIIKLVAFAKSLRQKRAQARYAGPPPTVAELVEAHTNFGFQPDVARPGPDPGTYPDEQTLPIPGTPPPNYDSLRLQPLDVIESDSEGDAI
T1 sequence (A0A8I3MKE6 1-646): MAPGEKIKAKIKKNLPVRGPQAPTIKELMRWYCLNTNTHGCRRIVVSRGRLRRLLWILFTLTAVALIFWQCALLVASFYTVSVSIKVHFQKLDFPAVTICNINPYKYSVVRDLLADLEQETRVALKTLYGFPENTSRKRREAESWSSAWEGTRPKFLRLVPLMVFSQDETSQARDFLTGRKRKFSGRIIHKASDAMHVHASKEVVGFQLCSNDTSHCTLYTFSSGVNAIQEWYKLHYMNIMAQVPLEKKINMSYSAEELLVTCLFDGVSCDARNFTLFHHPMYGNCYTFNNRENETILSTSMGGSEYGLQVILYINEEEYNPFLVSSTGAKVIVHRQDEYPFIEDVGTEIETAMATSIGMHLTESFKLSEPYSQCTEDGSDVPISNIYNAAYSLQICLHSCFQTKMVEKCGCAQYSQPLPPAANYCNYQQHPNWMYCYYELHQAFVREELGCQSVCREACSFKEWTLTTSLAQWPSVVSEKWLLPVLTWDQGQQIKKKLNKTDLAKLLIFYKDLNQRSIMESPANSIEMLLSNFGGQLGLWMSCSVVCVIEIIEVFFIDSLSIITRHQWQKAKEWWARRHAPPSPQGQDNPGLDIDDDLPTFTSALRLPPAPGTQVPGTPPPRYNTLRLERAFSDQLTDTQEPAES
Nature of the test: Inhibition of short-circuit current (ISC) and reversibility, bronchial epithelial monolayers in Ussing chamber, canine cells. Format: cell-based. The conditions noted are these: canine bronchial epithelial cells (CBE); mean ± SD (n). As to the method:
One assay used to assess mechanism of action and/or potency of the compounds of the present invention involves the determination of luminal drug inhibition of airway epithelial sodium currents measured under short circuit current (ISC) using airway epithelial monolayers mounted in Ussing chambers. Cells are obtained from freshly excised human, canine, sheep or rodent airways.
Inhibition of transcellular sodium movement through ENaC was measured using polarized bronchial epithelial cell monolayers mounted in a modified Ussing chamber. Primary cultures of canine or human bronchial epithelial cells grown using an air-liquid interface were tested under voltage clamp conditions. The short-circuit current (ISC) was measured as an index of transepithelial sodium transport to assess potency.
Recovery of short circuit current (ISC) from maximal block was used as an indirect measurement of drug off-rate.

Another test concerns the target Muc5B (Homo sapiens, UniProt Q9HC84). To be noted: in vitro; cited from earlier work.

The IC50 is the concentration that inhibits the measured activity by half. Turning to `N=C(NCCCCc1ccc(OCCN(CCCc2ccccc2)C[C@H](O)[C@@H](O)[C@H](O)[C@H](O)CO)cc1)NC(=O)c1nc(Cl)c(N)nc1N` [Compound 12, 3,5-diamino-6-chloro-N—(N-(4-(4-(2-(((2S,3R,4R,5R)-2,3,4,5,6-pentahydroxyhexyl)(3-phenylpropyl)amino)ethoxy)phenyl)butyl)carbamimidoyl)pyrazine-2-carboxamide], at ENaC, the 50% inhibitory concentration (IC50) was 6.6 ± 7 nM.
Compound `N=C(NCCCCc1ccc(OCCN(CCCc2ccc3ccccc3c2)C[C@H](O)[C@@H](O)[C@H](O)[C@H](O)CO)cc1)NC(=O)c1nc(Cl)c(N)nc1N` [Compound 17, 3,5-diamino-6-chloro-N—(N-(4-(4-(2-((3-(naphthalen-2-yl)propyl)((2S,3R,4R,5R)-2,3,4,5,6-pentahydroxyhexyl)amino)ethoxy)phenyl)butyl)carbamimidoyl)pyrazine-2-carboxamide] showed a half-inhibitory concentration (IC50) at ENaC of 5.6 ± 9 nM.
On the same count and under the same terms, the figure for `N=C(NCCCCc1ccc(OCCN(CCCc2cccc3ccccc23)C[C@H](O)[C@@H](O)[C@H](O)[C@H](O)CO)cc1)NC(=O)c1nc(Cl)c(N)nc1N` [Compound 27, 3,5-diamino-6-chloro-N—(N-(4-(4-(2-((3-(naphthalen-1-yl)propyl)((2S,3R,4R,5R)-2,3,4,5,6-pentahydroxyhexyl)amino)ethoxy)phenyl)butyl)carbamimidoyl)pyrazine-2-carboxamide] is 5.9 ± 4.8 nM.
Same read-out and setting: for `N=C(NCCCCc1ccc(CCCN(CCCc2ccccc2)C[C@H](O)[C@@H](O)[C@H](O)[C@H](O)CO)cc1)NC(=O)c1nc(Cl)c(N)nc1N` [Compound 40, 3,5-diamino-6-chloro-N—(N-(4-(4-(3-(((2S,3R,4R,5R)-2,3,4,5,6-pentahydroxyhexyl)(3-phenylpropyl)amino)propyl)phenyl)butyl)carbamimidoyl)pyrazine-2-carboxamide] the value was 11.8 ± 8.2 nM.
With `CC(=O)N[C@@H](CS)C(=O)O` [NAC, N-acetyl cysteine], the “concentration required to fully reduce Muc5B” value at Muc5B is recorded as 200 mM.
